Reference: patent US5498795A, “Acetylenes disubstituted with hydroxyaryl and aryl or heteroaryl groups having retinoid-like biological activity” (Allergan, Inc., priority 1994, dated 1996)

Tested on: ornithine decarboxylase (ODC)
Assay: ODC assay: inhibition of TPA induction of ornithine decarboxylase
Format: in vivo
Text: The retinoic acid-like activity of these compounds is confirmed through the classic measure of retinoic acid activity involving the effects of retinoic acid on ornithine decarboxylase. The original work on the correlation between retinoic acid and decrease in cell proliferation was done by Verma & Boutwell, Cancer Research, 1977, 37,2196-2201. That reference discloses that ornithine decarboxylase (ODC) activity increased precedent to polyamine biosynthesis. It has been established elsewhere that increases in polyamine synthesis can be correlated or associated with cellular proliferation. Thus, if ODC activity could be inhibited, cell hyperproliferation could be modulated. Although all cases for ODC activity increases are unknown, it is known that 12-0-tetradecanoylphorbol-13-acetate (TPA) induces ODC activity. Retinoic acid inhibits this induction of ODC activity by TPA. […] Activity of exemplary compounds of the present invention in the above-described ODC assay is disclosed in Table 2 which provides either […] (or other measured per cent inhibition at the indicated concentration) for the respective exemplary compound.

SMILES	% of inhib (conc 100) [%]	% of inhib (conc 300) [%]
CC(C)(C)c1ccc(C#Cc2ccc(C(=O)O)cn2)cc1O [Compound 20, 6-[2-[[2-t-Butyl-1-hydroxy]-5-phenyl]ethyn-1-yl]nicotinic acid]	64	
O=C(O)c1ccc(C#Cc2ccc(C34CC5CC(CC(C5)C3)C4)c(O)c2)nc1 [Compound 23, 6-[2-[[2-(1-adamantyl)-1-hydroxy]-5-phenyl]-ethyn-1-yl]nicotinic acid]		55
